Data taken from patent US20030232851A1, “Viral treatment” (The Procter & Gamble Company, priority 1999, published 2003).
Values joined by “and” are separate entries in the source; they are usually repeats but may differ in a detail not shown here. Equal entries are not always repeated.

Legend:
CEMROD = CEMROD screening: toxicity values (XTT); format: cell-based, human; set-up: Toxicity Values, samples 1-3 / Toxicity Values, average: unit not given here
Description: After 6 days (or the experimental period) of incubation at 37° C. in a 5% carbon dioxide incubator the test plates are analyzed by staining with the tetrazolium dye XTT. […] On day 6 post-infection plates are removed from the incubator and observed. […] The results of the macroscopic observations were confirmed and enhanced by further microscopic analysis.
Phenazine methosulfate (PMS) solution is prepared at 15 mg/ml in PBS and stored in the dark at −20° C. […] Fifty microliters of XTT/PMS is added to each well of the plate and the plate is reincubated or 4 hours at 37° C. […] Percent cell reduction, percent cell viability, IC25,50, & 95 and TC25,50, & 95 can then be calculated.

[1] = system: HIV-1 cell line, U937IIIB; assay: Long term in vitro study, U937IIIB, reverse transcriptase; format: cell-based; set-up: reverse transcriptase data: unit not given here
Description: A microtiter-based reveres transcriptase (RT) reaction is utilized (Buckheit et al (1991) AIDS Research and Human Retroviruses 7:295-302). Tritiated thymidine triphosphate (NEN)(TTP) is resuspended in distilled water at 5 Ci/ml. Poly rA and oligo dT are prepared as a stock solution which is kept at −20° C. The RT reaction buffer is prepared fresh on a daily basis and consists of 125 μl 1M EGTA, 125 μl water, 125 μl Triton X-100, 50 μl Tris (pH 7.4), 50 μl 1 MDDT, and 40 μl 1M MgCl2. These three solutions are mixed together in a ratio of 1 part TTP, 2.5 parts poly rA:oligo dT, 2.5 parts reaction buffer and 4 parts distilled water. Ten microliters of this reaction mixture is placed in a round bottom microtiter place and 15 μl of virus containing supernatant is added and mixed. The plate is incubated at 37° C. for 60 minutes. Following reaction, the reaction volume is spotted onto filter mats, washed 6 times for 5 minutes each in a 5% sodium phosphate buffer, 2 times for 1 minute each in distilled water, 2 times for 1 minute each in 70% ethanol, and then dried. The dried filter mat is placed in a plastic sample bag, Betaplate scintillation fluid is added and the bag is heat sealed. Incorporated radioactivity is quantified utilizing a Wallac Microbeta scintillation counter.
Acute infection of most established human cell lines with HIV-1 results in the eventual establishment of a constitutive virus-producing chronically infected cell line. The cells can be passaged for long periods of time in culture without loss of virus production. These cells may be utilized to evaluate the effects of anti-HIV compounds on syncytium formation or to evaluate the effects of anti-HIV compounds on levels of virus production from these cells. […] Each of the cells contains an integrated HIV genome or provirus. Chronically infected CEM, H9 and U937 cell lines have been prepared and cultured by Southern Research Institute, Frederick Md. and are available from them.
CEM-SS cells chronically infected with HIV isolate, for example SKI (CEM-SKI) are cultured in RPMI1640 tissue culture medium supplemented with 10% fetal bovine serum and antibiotics. […] CEM-SKI or other infected cells with no added drug are used as the control cells. Cells are allowed to grow to a density of approximately 1×10^6 cells/ml and are then passaged at a 1:10 dilution. […] The drug concentration in the flask is then increased two-fold and the cells maintained as above.
The cell populations contain integrated copies of the HIV genome and constitutively produce HIV at relatively high levels or are latently infected and only produce virus after stimulation with phorbol esters, tumor necrosis factor or IL6 (U1 and ACH2). Reductions in virus products were observed when quantifying supernatant reverse transcriptase activity,
A long term in vitro study of 2-(2-thienyl)-imidazolo [4,5-b]pyridine against an HIV-1 cell line, U9371IIIB was conducted at three different levels. The results with U937IIIB cells were reported at weekly intervals.

[2] = Table 2 duplicate study, 0.32 μg/ml
[3] = Table 2 duplicate study, 1 μg/ml
[4] = Table 2 duplicate study, 1.0 μg/ml
[5] = Table 2 duplicate study, 3.2 μg/ml
[6] = Table 2 duplicate study, 32 μg/ml
[7] = Table 2 duplicate study, 100 μg/ml

Question: How did the “Toxicity Values, % cell control” value (CEMROD; Table 1, 0.32 μg/ml) turn out when `c1csc(-c2nc3cccnc3[nH]2)c1` [2-(2-thienyl)-imidazolo [4,5-b]pyridine] was run?
Answer: 102%

Question: What about the “Toxicity Values, average” value (CEMROD; Table 1, 0.32 μg/ml) of the same compound?
Answer: 1.144

Question: What about the “Toxicity Values, % cell control” value (CEMROD; Table 1, 1 μg/ml) of the same compound?
Answer: 100.1%

Question: What about the “Toxicity Values, average” value (CEMROD; Table 1, 1 μg/ml) of the same compound?
Answer: 1.122

Question: What about the “Toxicity Values, % cell control” value (CEMROD; Table 1, 1.0 μg/ml) of the same compound?
Answer: 81.3%

Question: And the “Toxicity Values, average” value (CEMROD; Table 1, 1.0 μg/ml)?
Answer: 0.912

Question: What about the “Toxicity Values, % cell control” value (CEMROD; Table 1, 3.2 μg/ml) of the same compound?
Answer: 94.1%

Question: What about the “Toxicity Values, average” value (CEMROD; Table 1, 3.2 μg/ml) of the same compound?
Answer: 1.055

Question: And the “Toxicity Values, % cell control” value (CEMROD; Table 1, 32 μg/ml)?
Answer: 28.7%

Question: And the “Toxicity Values, average” value (CEMROD; Table 1, 32 μg/ml)?
Answer: 0.322

Question: What about the “Toxicity Values, % cell control” value (CEMROD; Table 1, 100 μg/ml) of the same compound?
Answer: 7.6%

Question: What about the “Toxicity Values, average” value (CEMROD; Table 1, 100 μg/ml) of the same compound?
Answer: 0.086

Question: And the “Toxicity Values, % cell control” value (CEMROD; [2])?
Answer: 114.7%

Question: What about the “Toxicity Values, average” value (CEMROD; [2]) of the same compound?
Answer: 1.088

Question: What about the “Toxicity Values, samples 1-3” value (CEMROD; [2]) of the same compound?
Answer: 1.189 and 1.074 and 1.000

Question: What about the “Toxicity Values, % cell control” value (CEMROD; [3]) of the same compound?
Answer: 108.4%

Question: What about the “Toxicity Values, average” value (CEMROD; [3]) of the same compound?
Answer: 1.028

Question: And the “Toxicity Values, samples 1-3” value (CEMROD; [3])?
Answer: 1.066 and 1.038 and 0.980

Question: And the “Toxicity Values, % cell control” value (CEMROD; [4])?
Answer: 72.2%

Question: And the “Toxicity Values, average” value (CEMROD; [4])?
Answer: 0.684

Question: And the “Toxicity Values, samples 1-3” value (CEMROD; [4])?
Answer: 0.694 and 0.726 and 0.633

Question: What about the “Toxicity Values, % cell control” value (CEMROD; [5]) of the same compound?
Answer: 98.9%

Question: And the “Toxicity Values, average” value (CEMROD; [5])?
Answer: 0.938

Question: And the “Toxicity Values, samples 1-3” value (CEMROD; [5])?
Answer: 1.008 and 0.924 and 0.881

Question: And the “Toxicity Values, % cell control” value (CEMROD; [6])?
Answer: 17.4%

Question: What about the “Toxicity Values, average” value (CEMROD; [6]) of the same compound?
Answer: 0.165

Question: And the “Toxicity Values, samples 1-3” value (CEMROD; [6])?
Answer: 0.183 and 0.168 and 0.145

Question: What about the “Toxicity Values, % cell control” value (CEMROD; [7]) of the same compound?
Answer: 13.5%

Question: What about the “Toxicity Values, average” value (CEMROD; [7]) of the same compound?
Answer: 0.128

Question: And the “Toxicity Values, samples 1-3” value (CEMROD; [7])?
Answer: 0.121 and 0.133 and 0.130

Question: And the “toxicity (in words)” value (CEMROD; at the higher concentrations)?
Answer: not toxic

Question: What about the reverse transcriptase data ([1]; 7 μg/ml, day 4) of the same compound?
Answer: 2100

Question: What about the reverse transcriptase data ([1]; 7 μg/ml, day 11) of the same compound?
Answer: 2205

Question: And the reverse transcriptase data ([1]; 7 μg/ml, day 18)?
Answer: 2245

Question: And the reverse transcriptase data ([1]; 7 μg/ml, day 25)?
Answer: 2212

Question: And the reverse transcriptase data ([1]; 7 μg/ml, day 32)?
Answer: 2347

Question: And the reverse transcriptase data ([1]; 7 μg/ml, day 39)?
Answer: 2516

Question: What about the reverse transcriptase data ([1]; 7 μg/ml, day 46) of the same compound?
Answer: 1968

Question: And the reverse transcriptase data ([1]; 7 μg/ml, day 53)?
Answer: 1695

Question: And the reverse transcriptase data ([1]; 7 μg/ml, day 60)?
Answer: 2887

Question: What about the reverse transcriptase data ([1]; 7 μg/ml, day 67) of the same compound?
Answer: 4170

Question: What about the reverse transcriptase data ([1]; 7 μg/ml, day 71) of the same compound?
Answer: 7786

Question: What about the reverse transcriptase data ([1]; 7 μg/ml, day 74) of the same compound?
Answer: 6119

Question: What about the reverse transcriptase data ([1]; 7 μg/ml, day 88) of the same compound?
Answer: 6880

Question: And the reverse transcriptase data ([1]; 7 μg/ml, day 95)?
Answer: 5041

Question: And the reverse transcriptase data ([1]; 7 μg/ml, day 102)?
Answer: 5072

Question: And the reverse transcriptase data ([1]; 7 μg/ml, day 109)?
Answer: 7437

Question: What about the reverse transcriptase data ([1]; 15 μg/ml, day 4) of the same compound?
Answer: 1188

Question: And the reverse transcriptase data ([1]; 15 μg/ml, day 11)?
Answer: 713

Question: What about the reverse transcriptase data ([1]; 15 μg/ml, day 18) of the same compound?
Answer: 993

Question: What about the reverse transcriptase data ([1]; 15 μg/ml, day 25) of the same compound?
Answer: 1900

Question: What about the reverse transcriptase data ([1]; 15 μg/ml, day 32) of the same compound?
Answer: 2003

Question: What about the reverse transcriptase data ([1]; 15 μg/ml, day 39) of the same compound?
Answer: 1326

Question: And the reverse transcriptase data ([1]; 15 μg/ml, day 46)?
Answer: 987

Question: What about the reverse transcriptase data ([1]; 15 μg/ml, day 53) of the same compound?
Answer: 1221

Question: What about the reverse transcriptase data ([1]; 15 μg/ml, day 60) of the same compound?
Answer: 1205

Question: And the reverse transcriptase data ([1]; 15 μg/ml, day 67)?
Answer: 2314

Question: And the reverse transcriptase data ([1]; 15 μg/ml, day 71)?
Answer: 4265

Question: What about the reverse transcriptase data ([1]; 15 μg/ml, day 74) of the same compound?
Answer: 5689

Question: And the reverse transcriptase data ([1]; 15 μg/ml, day 88)?
Answer: 6832

Question: And the reverse transcriptase data ([1]; 15 μg/ml, day 95)?
Answer: 4988

Question: What about the reverse transcriptase data ([1]; 15 μg/ml, day 102) of the same compound?
Answer: 3912

Question: And the reverse transcriptase data ([1]; 15 μg/ml, day 109)?
Answer: 4294

Question: And the reverse transcriptase data ([1]; 30 μg/ml, day 4)?
Answer: 996

Question: And the reverse transcriptase data ([1]; 30 μg/ml, day 11)?
Answer: 180

Question: What about the reverse transcriptase data ([1]; 30 μg/ml, day 18) of the same compound?
Answer: 417

Question: And the reverse transcriptase data ([1]; 30 μg/ml, day 25)?
Answer: 588

Question: What about the reverse transcriptase data ([1]; 30 μg/ml, day 32) of the same compound?
Answer: 716

Question: And the reverse transcriptase data ([1]; 30 μg/ml, day 39)?
Answer: 625

Question: And the reverse transcriptase data ([1]; 30 μg/ml, day 46)?
Answer: 542

Question: And the reverse transcriptase data ([1]; 30 μg/ml, day 53)?
Answer: 208

Question: And the reverse transcriptase data ([1]; 30 μg/ml, day 60)?
Answer: 504

Question: And the reverse transcriptase data ([1]; 30 μg/ml, day 67)?
Answer: 782

Question: What about the reverse transcriptase data ([1]; 30 μg/ml, day 71) of the same compound?
Answer: 1414

Question: And the reverse transcriptase data ([1]; 30 μg/ml, day 74)?
Answer: 1059

Question: And the reverse transcriptase data ([1]; 30 μg/ml, day 88)?
Answer: 1811

Question: And the reverse transcriptase data ([1]; 30 μg/ml, day 95)?
Answer: 1988

Question: And the reverse transcriptase data ([1]; 30 μg/ml, day 102)?
Answer: 1695

Question: What about the reverse transcriptase data ([1]; 30 μg/ml, day 109) of the same compound?
Answer: 1542

Question: And the “reverse transcriptase data on continuation (in words)” value ([1]; run through 242 days)?
Answer: data remained consistent
